From patent publication US6361780B1, “Microporous drug delivery system” (Cardiac Pacemakers, Inc., priority 1998, dated 2002)

Experiment: In vitro elution testing of drug-loaded collars (light absorption of solution at 242 nm)
Format: physicochemical
Conditions: dried collar loaded from aqueous solution, then immersed in water
Method: FIG. 3 is a graph of radiation absorption (at 242 nm) versus time to measure the elution of dexamethasone acetate.
* denotes the use of an approximation during the calculation of values. […] The soaked collars were then dried for three hours and the delivered for elution testing. Elution testing was done by in vitro testing of the light absorption of a solution into which the collars were placed. The absorption at 242 nm was measured (a wavelength at which dexamethasone acetate strongly absorbs) and the release of the drug noted by increasing levels of absorbance, as shown in FIG. 3. […] Pore size would be estimated by taking the largest linear dimensions within each of the open areas and using that linear value as the largest dimension for that pore.
The rate of release from the collars is intended to be highly tailored to the specific ultimate use intended for the catheter or lead. The leads which may be used include traditional leads such as cardiac leads, but may also include other leads such as leads to organs that produce enzymes and hormones (as in the electrically stimulated treatment for Parkinsonism to accelerate the natural production of L-dopa), in stimulating breathing (in the prevention of SIDS or control of sleep apnea), neurological leads, hearing related leads, tinitus suppression leads, and the like. […]

## CC(=O)OCC(=O)[C@@]1(O)[C@H](C)C[C@H]2[C@@H]3CCC4=CC(=O)C=C[C@]4(C)[C@@]3(F)[C@@H](O)C[C@@]21C [dextramethasone acetate, dexamethasone acetate]
  removal of drug from the pores on immersion: removed from the pores over time
